Data: patent US20240208953A1, “"Cyclopenta[c]pyrrol Negative Allosteric Modulators of NR2B"” (Novartis AG, priority 2021, published 2024)

How the values were obtained:
NR2B = NR2B (Rattus norvegicus (Rat), UniProt Q00960); experiment: NR2B rat cortical neuron calcium influx assay; type: cell-based; details: rat cortical neurons, glutamate and glycine stimulated calcium influx
Excerpt: Example 1: NR2B Rat Cortical Neuron Calcium Influx Assay Protocol
Embryonic day 18 timed pregnant Sprague Dawley rats were euthanized according to Institutional Animal Care and Use Committee (IACUC) protocol. After cutting medially through the skin and exposing the uterus and embryos, fetuses were removed and placed in cold Hibernate medium. Each embryo's brain was extracted and cerebral cortices were isolated by removing the midbrain and meninges. The dissected cortices were then dissociated into the neurons using papain dissociation system (Worthington Biochemical Corporation) according the manufacturer's protocol.
Dissociated neurons were counted and plated into 384-well poly-D-lysine coated plates (Corning® BioCoat™) at a density of 20,000 cells/well in 30 μL of Neurobasal/B27 complete medium. Neurons were cultured at 37° C. for 2 days. On the assay day, medium was removed and cells were incubated with 20 μL/well of calcium dye (Calcium 6 Assay Kit, Molecular Devices) suspended in HBSS with 1.8 mM Ca^2+ (Ca-HBSS) according to the manufacturer's instruction.
Compounds of interest from 10 mM stock were serially diluted into 3× of desired concentrations in 1.8 mM Ca-HBSS, and 10 μL were added to the wells. Compound and the neurons were incubated at 37° C. for 2 hours in the dark.
On FDSS7000EX (Hamamatsu Photonics), a fluorescence measuring instrument, 10 μL of 4× ligand solution containing glutamate and glycine made in 1.8 mM Ca^2+-HBSS were added to each well. The fluorescent signals were collected before and after the addition of ligands for a total of 2 minutes. The data were converted to a ratio of the peak fluorescence to the fluorescence at the beginning of the measurement.
Each data point was measured in duplicates. Dose response curves were used to identify IC50 and maximal inhibition values. IC50 represents the concentration in μM of compound at which there is a half-maximal compound effect. Maximal inhibition of a compound is expressed as a percent of the highest inhibition of activity over a no compound control.

P-glycoprotein (P-gp) = P-glycoprotein (P-gp) (Homo sapiens (Human), UniProt P08183); experiment: MDCK-MDR1 permeability / efflux assay; type: in vitro ADME; details: for efflux ratio at 120 min, 10 μM: dog, MDCK-MDR1, pH 7.4, efflux ratio, read-out: MDCK-MDR1 ER
Sequence of P-glycoprotein (P-gp) (P08183 whole entry): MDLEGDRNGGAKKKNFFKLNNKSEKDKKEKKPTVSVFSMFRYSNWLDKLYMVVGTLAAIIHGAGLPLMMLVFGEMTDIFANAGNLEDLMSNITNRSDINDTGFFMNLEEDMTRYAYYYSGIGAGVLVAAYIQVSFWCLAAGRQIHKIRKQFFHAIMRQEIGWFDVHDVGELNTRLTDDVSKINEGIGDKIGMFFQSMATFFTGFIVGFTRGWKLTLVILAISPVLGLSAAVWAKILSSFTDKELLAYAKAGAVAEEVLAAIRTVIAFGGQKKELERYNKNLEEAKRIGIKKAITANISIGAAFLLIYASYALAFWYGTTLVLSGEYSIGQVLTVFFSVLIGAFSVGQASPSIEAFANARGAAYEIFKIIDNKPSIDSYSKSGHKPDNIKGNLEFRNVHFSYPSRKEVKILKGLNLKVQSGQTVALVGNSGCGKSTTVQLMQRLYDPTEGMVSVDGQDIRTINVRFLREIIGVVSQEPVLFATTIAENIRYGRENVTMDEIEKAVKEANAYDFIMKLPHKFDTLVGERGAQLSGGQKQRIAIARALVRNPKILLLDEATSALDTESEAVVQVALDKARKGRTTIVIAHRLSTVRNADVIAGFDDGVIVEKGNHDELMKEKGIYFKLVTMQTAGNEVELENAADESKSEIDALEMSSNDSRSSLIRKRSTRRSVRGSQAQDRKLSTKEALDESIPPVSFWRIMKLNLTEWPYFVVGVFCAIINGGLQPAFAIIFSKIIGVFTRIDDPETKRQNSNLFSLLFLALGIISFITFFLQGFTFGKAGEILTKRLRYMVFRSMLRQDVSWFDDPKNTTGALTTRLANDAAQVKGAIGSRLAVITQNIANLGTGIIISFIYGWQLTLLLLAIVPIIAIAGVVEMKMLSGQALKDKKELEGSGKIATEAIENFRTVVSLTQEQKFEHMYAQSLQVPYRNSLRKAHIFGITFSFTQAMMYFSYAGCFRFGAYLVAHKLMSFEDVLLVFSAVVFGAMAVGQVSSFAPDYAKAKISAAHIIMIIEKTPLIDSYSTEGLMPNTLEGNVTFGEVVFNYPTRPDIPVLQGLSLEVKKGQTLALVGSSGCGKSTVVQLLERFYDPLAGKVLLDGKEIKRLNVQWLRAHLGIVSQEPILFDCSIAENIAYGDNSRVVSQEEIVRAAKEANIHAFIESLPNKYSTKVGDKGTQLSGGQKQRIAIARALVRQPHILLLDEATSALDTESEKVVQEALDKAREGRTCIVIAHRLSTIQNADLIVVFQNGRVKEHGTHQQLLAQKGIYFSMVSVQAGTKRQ
Description: Example 4. Experimental Measurement of Efflux with MDCK-MDR1 Protocol
Cell Culture. MDCK-MDR1 cells were cultured at 37° C. under a 5% CO2 atmosphere, at 95% relative humidity in DMEM containing 10% FBS, penicillin-streptomycin (100 μg/mL), and 2 mM Ala-Gln. Cells were passaged every 3-4 days. For assay purposes, cells were seeded at a density of approximately 265,000 cells/cm^2 of a 96-well Transwell plate (Corning Life Sciences, Acton, MA) and cultured in the same media noted above for a period of 4 days.
Assay. The determination of the apparent permeability (Papp) was performed in both the A→B (apical to basal) and B→A (basal to apical) directions where each compound was assayed in triplicate. The zwitterion bestatin, a poorly permeably compound, was used as marker of monolayer integrity. To initiate the assay, media was aspirated, and the cells and basal chambers were washed three times with Hank's Balanced Salt Solution (HBSS) containing 10 mM HEPES (pH 7.4). Compound test solutions were prepared in triplicate in HBSS containing 10 mM HEPES (pH 7.4) and 0.02% bovine serum albumin (BSA) to a final concentration of 10 μM and centrifuged for 2 min at 4000×g, then applied to the donor compartment at time zero. Additionally, at time zero, a 37° C. solution without test articles (HBSS+10 mM HEPES (pH 7.4) plus 0.02% BSA) was added to the receiver chamber of the Transwell plate. A time zero sample of the donor solution was also sampled for further analysis. The assay was conducted for a period of 120 min at 37° C. without shaking. At the time of assay termination, samples were taken from each donor compartment, and each acceptor compartment of the Transwell plate. To each of the 0 and 120 min samples was added an internal standard solution containing glyburide in water:acetonitrile, 50:50 (v:v). Concentration curves were prepared using a Labcyte Echo in the same matrix noted above. Samples and concentration curve samples were centrifuged for 10 min at 4000×g and subsequently analyzed by mass spectroscopy.
Mass Spectroscopy. Assay samples were loaded onto a RapidFire C4 cartridge by means of a RapidFire autosampler (Agilent, Santa Clara, CA). […] Mass spectroscopy was performed using an AB Sciex AP15500 (Sciex, Frammingham, MA) equipped with a turbo ion spray source. The analyte concentration was calculated from the chromatographic peak area ratio of analyte to internal standard (glibenclamide, m/z 494→169), using Multiquant software V3.0 (Sciex, Framingham, MA).
Calculations. Papp values were determined as
Percent recovery values were determined as:
where VA is the volume of the acceptor (mL), S is the surface area of the membrane, D0 is the donor solution concentration at t=0, D120 is the donor solution concentration at t=120, A120 is the acceptor solution concentration at t=120, and t=time (seconds).
The suitability of a compound for oral dosing and/or for use as a CNS therapeutic is usually conducted by MDCK-MDR1 permeability assay to investigate its drug efflux potential mediated by P-glycoprotein (P-gp). MDCK-MDR1 permeability has been used as a predictor of blood brain barrier permeability in terms of efflux ratio (ER).

Sequence of NR2B (Q00960 27-1482, other chains not shown): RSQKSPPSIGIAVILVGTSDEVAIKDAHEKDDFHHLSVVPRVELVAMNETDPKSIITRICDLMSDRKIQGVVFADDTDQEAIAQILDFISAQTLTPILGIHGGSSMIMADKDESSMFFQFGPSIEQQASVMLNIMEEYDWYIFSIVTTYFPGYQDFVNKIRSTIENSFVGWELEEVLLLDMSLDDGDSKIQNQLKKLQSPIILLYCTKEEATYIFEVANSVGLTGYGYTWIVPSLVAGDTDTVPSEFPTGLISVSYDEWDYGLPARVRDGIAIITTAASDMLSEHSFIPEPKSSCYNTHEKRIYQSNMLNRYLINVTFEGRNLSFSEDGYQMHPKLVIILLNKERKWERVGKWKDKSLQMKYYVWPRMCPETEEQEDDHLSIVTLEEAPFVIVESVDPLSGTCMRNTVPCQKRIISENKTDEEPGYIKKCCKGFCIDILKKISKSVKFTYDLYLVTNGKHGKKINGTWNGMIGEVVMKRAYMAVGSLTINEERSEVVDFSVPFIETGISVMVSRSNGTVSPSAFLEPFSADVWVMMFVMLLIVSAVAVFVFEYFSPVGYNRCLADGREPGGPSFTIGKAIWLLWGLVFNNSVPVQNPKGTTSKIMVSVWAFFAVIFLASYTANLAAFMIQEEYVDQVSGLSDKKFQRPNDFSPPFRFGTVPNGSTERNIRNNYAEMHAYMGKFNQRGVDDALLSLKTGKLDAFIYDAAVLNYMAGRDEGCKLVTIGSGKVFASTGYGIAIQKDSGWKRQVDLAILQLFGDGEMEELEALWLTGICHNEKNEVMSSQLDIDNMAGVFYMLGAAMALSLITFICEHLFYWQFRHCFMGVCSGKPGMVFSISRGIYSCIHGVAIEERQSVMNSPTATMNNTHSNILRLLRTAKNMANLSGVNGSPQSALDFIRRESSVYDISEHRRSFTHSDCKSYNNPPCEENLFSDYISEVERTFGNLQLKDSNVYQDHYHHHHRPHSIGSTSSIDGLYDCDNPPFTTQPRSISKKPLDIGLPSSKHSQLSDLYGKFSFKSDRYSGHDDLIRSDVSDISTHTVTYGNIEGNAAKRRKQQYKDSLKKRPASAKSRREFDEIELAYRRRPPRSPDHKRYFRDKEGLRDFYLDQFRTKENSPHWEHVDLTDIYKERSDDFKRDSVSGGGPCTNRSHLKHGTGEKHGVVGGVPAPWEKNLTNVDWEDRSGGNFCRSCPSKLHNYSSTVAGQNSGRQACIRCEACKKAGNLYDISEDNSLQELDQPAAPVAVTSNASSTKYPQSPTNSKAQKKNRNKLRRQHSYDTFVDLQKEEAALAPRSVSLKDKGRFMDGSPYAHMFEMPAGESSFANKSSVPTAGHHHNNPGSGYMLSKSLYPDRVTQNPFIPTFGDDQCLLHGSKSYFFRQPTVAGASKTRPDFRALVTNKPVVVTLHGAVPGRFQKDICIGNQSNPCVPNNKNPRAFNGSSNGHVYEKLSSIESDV

IC50 (NR2B) [nM] | efflux ratio at 120 min, 10 μM (P-glycoprotein (P-gp)) | MDCK-MDR1 ER (P-glycoprotein (P-gp); efflux ratio, 10 μM, 120 min) | Structure (SMILES)
280 | 1.18 | – | O=C1CCCc2cc([C@@H](O)CN3C[C@H]4C[C@H](Oc5ccccc5)C[C@@]4(O)C3)cc(F)c2N1 (single isomer, unassigned) [Example 30A]
2.7 | 3.81 | – | O=C1Nc2ccc([C@@H](O)CN3C[C@H]4C[C@H](Oc5ccccc5)C[C@@]4(O)C3)c(F)c2CO1 (single isomer, unassigned) [Example 34A]
1.1 | 3.47 | – | O=C1Nc2ccc([C@H](O)CN3C[C@H]4C[C@H](Oc5ccccc5)C[C@@]4(O)C3)c(F)c2CO1 (single isomer, unassigned) [Example 34B]
1.2 | 1 | – | O=C1Nc2c(F)cc([C@@H](O)CN3C[C@H]4C[C@H](Oc5ccccc5F)C[C@@]4(O)C3)cc2CO1 (single isomer, unassigned) [Example 35A]
1.3 | 2.04 | – | O=C1Nc2c(F)cc([C@H](O)CN3C[C@H]4C[C@H](Oc5ccccc5F)C[C@@]4(O)C3)cc2CO1 (single isomer, unassigned) [Example 35B]
1.5 | 2.44 | – | O=C1Nc2cc(F)c([C@H](O)CN3C[C@H]4C[C@H](Oc5ccccc5)C[C@@]4(O)C3)cc2CO1 (single isomer, unassigned) [Example 36B]
33 | 1.15 | – | O=C1Nc2c(F)cc([C@@H](O)CN3C[C@H]4C[C@H](Oc5ccccc5)C[C@@]4(O)C3)c(F)c2CO1 (single isomer, unassigned) [Example 37A]
5.1 | 1.58 | – | O=C1Nc2c(cc([C@@H](O)CN3C[C@H]4C[C@H](Oc5ccccc5)C[C@@]4(O)C3)c(F)c2F)CO1 (single isomer, unassigned) [Example 38A]
0.3 | 1.86 | – | O=C1Nc2ccc([C@@H](O)CN3C[C@H]4C[C@H](Oc5ccccc5F)C[C@@]4(O)C3)cc2CO1 (single isomer, unassigned) [Example 41A]
0.23 | 2.44 | – | O=C1Nc2ccc([C@H](O)CN3C[C@H]4C[C@H](Oc5ccccc5F)C[C@@]4(O)C3)cc2CO1 (single isomer, unassigned) [Example 41B]
0.034 | 2.16 | – | O=C1CCCc2cc([C@@H](O)CN3C[C@H]4C[C@H](Oc5ccccc5F)C[C@@]4(O)C3)ccc2N1 (single isomer, unassigned) [Example 43A]
170 | 6.09 | – | O[C@@H](CN1C[C@H]2C[C@H](Oc3ccccc3F)[C@H](O)[C@@]2(O)C1)c1cnc2[nH]ccc2c1 (single isomer, unassigned) [Example 44A]
63 | 3.54 | – | O=C1Cc2cc([C@H](O)CN3C[C@H]4C[C@H](Oc5ccccc5)C[C@@]4(O)C3)ccc2N1 [Example 2B, 5-((S)-1-hydroxy-2-((3aS,5S,6aR)-3a-hydroxy-5-phenoxyhexahydrocyclopenta[c]pyrrol-2(1H)-yl)ethyl)indolin-2-one]
5490 | 7.49 | – | O=C1Cc2cc([C@@H](O)CN3C[C@@H]4C[C@@H](Oc5ccccc5)[C@@H](O)[C@]4(O)C3)ccc2N1 [Example 3A, 5-((R)-2-((3aR,4R,5R,6aS)-3a,4-dihydroxy-5-phenoxyhexahydrocyclopenta[c]pyrrol-2(1H)-yl)-1-hydroxyethyl)indolin-2-one]
> 10000 | – | 6.36 | O=C1Cc2cc([C@H](O)CN3C[C@@H]4C[C@@H](Oc5ccccc5)[C@@H](O)[C@]4(O)C3)ccc2N1 [Example 3B]
13 | 6.99 | – | O=C1CCc2cc([C@@H](O)CN3C[C@H]4C[C@H](Oc5ccccc5)[C@H](O)[C@@]4(O)C3)ccc2N1 [Example 4A, 6-((R)-2-((3aS,4S,5S,6aR)-3a,4-dihydroxy-5-phenoxyhexahydrocyclopenta[c]pyrrol-2(1H)-yl)-1-hydroxyethyl)-3,4-dihydroquinolin-2(1H)-one]
3050 | 6.75 | – | O=C1CCc2cc([C@@H](O)CN3C[C@@H]4C[C@@H](Oc5ccccc5)[C@@H](O)[C@]4(O)C3)ccc2N1 [Example 4C, 6-((R)-2-((3aR,4R,5R,6aS)-3a,4-dihydroxy-5-phenoxyhexahydrocyclopenta[c]pyrrol-2(1H)-yl)-1-hydroxyethyl)-3,4-dihydroquinolin-2(1H)-one]
250 | 6.87 | – | O=C1CCc2cc([C@H](O)CN3C[C@@H]4C[C@@H](Oc5ccccc5)[C@@H](O)[C@]4(O)C3)ccc2N1 [Example 4D, 6-((S)-2-((3aR,4R,5R,6aS)-3a,4-dihydroxy-5-phenoxyhexahydrocyclopenta[c]pyrrol-2(1H)-yl)-1-hydroxyethyl)-3,4-dihydroquinolin-2(1H)-one]
38 | 1.05 | – | O=C1CCc2cc([C@@H](O)CN3C[C@H]4C[C@H](Oc5ccccc5F)C[C@@]4(O)C3)ccc2N1 [Example 5A, 6-((R)-2-((3aS,5S,6aR)-5-(2-fluorophenoxy)-3a-hydroxyhexahydrocyclopenta[c]pyrrol-2(1H)-yl)-1-hydroxyethyl)-3,4-dihydroquinolin-2(1H)-one]
